In brackets after ≈: the same amount, converted by molar mass.
Assays:
[1] = Distribution coefficient, logD of compound; format: physicochemical; conditions: octanol/water
[2] = Solubility of compound at pH 2; format: physicochemical; conditions: buffer
[3] = Solubility of compound at pH 7.4; format: physicochemical; conditions: buffer
[4] = Clearance in human liver microsomes; format: ADME, Microsome
[5] = target: T1, Tyrosine-protein kinase SYK (Homo sapiens, UniProt P43405); test: Inhibition of SYK in human Ramos cells assessed as reduction in antihuman IgM F(ab)2-induced phosphorylation of BLNK at Y96 residue preincubated for 1 hr followed by antihuman IgM F(ab)2 stimulation for 5 mins by MSD high bind plate assay; format: cell-based
[6] = target: T1, Tyrosine-protein kinase SYK; test: Inhibition of SYK (unknown origin) using XL665-labeled peptide as substrate in presence of ATP measured after 30 mins by TR-FRET assay
[7] = target: T1, Tyrosine-protein kinase SYK; test: Inhibition of SYK in human whole blood assessed as reduction in anti-FCepsilonR1 mAb-induced basophil activation by measuring decrease in CD63 surface expression incubated for 60 mins followed by anti-FCepsilonR1 mAb stimulation for 20 mins by flow cytometry analysis; format: tissue-based

## c1cn2cc(-c3ccc4cn[nH]c4c3)nc(Nc3ccc(N4CCOCC4)cc3)c2n1 [ENTOSPLETINIB]
[1]
  logD: 2.5
[2]
  solubility: 13 µM (≈ 5.35 µg/mL)
[3]
  solubility: 6 µM (≈ 2.47 µg/mL)
[4]
  CLhep predicted: 0.31 L/h/kg

## c1cn2cc(-c3ccc4cc[nH]c4c3)nc(Nc3ccc(N4CCN(C5COC5)CC4)cc3)c2n1
[5]
  EC50: 0.026 µM
[6]
  IC50: 0.0157 µM
[2]
  solubility: > 100 µM
[7]
  EC50: 0.381 µM
[3]
  solubility: 15 µM (≈ 6.98 µg/mL)
[4]
  CLhep predicted: 0.31 L/h/kg

## c1cn2cc(-c3cnc4cn[nH]c4n3)nc(Nc3ccc(N4CCN(C5COC5)CC4)cc3)c2n1
[5]
  EC50: 0.037 µM
[6]
  IC50: 0.0032 µM
[2]
  solubility: > 100 µM
[7]
  EC50: 0.154 µM
[3]
  solubility: 2 µM (≈ 0.937 µg/mL)
[4]
  CLhep predicted: 0.14 L/h/kg

## c1cn2cc(-c3cnc4cc[nH]c4c3)nc(Nc3ccc(N4CCN(C5COC5)CC4)cc3)c2n1
[5]
  EC50: 0.046 µM
[6]
  IC50: 0.0069 µM
[2]
  solubility: > 100 µM
[7]
  EC50: 0.078 µM
[3]
  solubility: 1 µM (≈ 0.467 µg/mL)
[4]
  CLhep predicted: 0.23 L/h/kg

## c1cn2cc(-c3ccc4cn[nH]c4n3)nc(Nc3ccc(N4CCN(C5COC5)CC4)cc3)c2n1
[5]
  EC50: 0.023 µM
[6]
  IC50: 0.0067 µM
[2]
  solubility: > 100 µM
[7]
  EC50: 0.086 µM
[3]
  solubility: 5 µM (≈ 2.34 µg/mL)
[4]
  CLhep predicted: 0.28 L/h/kg

## c1cn2cc(-c3ccc4cc[nH]c4n3)nc(Nc3ccc(N4CCN(C5COC5)CC4)cc3)c2n1
[5]
  EC50: 0.018 µM
[6]
  IC50: 0.0113 µM
[2]
  solubility: 99 µM (≈ 46.2 µg/mL)
[7]
  EC50: 0.128 µM
[3]
  solubility: < 1 µM
[4]
  CLhep predicted: 0.38 L/h/kg

## c1cn2cc(-c3ccc4nc[nH]c4n3)nc(Nc3ccc(N4CCN(C5COC5)CC4)cc3)c2n1
[5]
  EC50: 0.066 µM
[6]
  IC50: 0.0319 µM
[2]
  solubility: > 100 µM
[7]
  EC50: 0.089 µM
[3]
  solubility: 90 µM (≈ 42.1 µg/mL)
[4]
  CLhep predicted: 0.17 L/h/kg

## CCN1CCN(c2ccc(Nc3nc(-c4ccc5cn[nH]c5c4)cn4ccnc34)cc2)CC1
[5]
  EC50: 0.036 µM
[6]
  IC50: 0.0008 µM
[1]
  logD: 1.9 to 2.7
[2]
  solubility: > 100 µM
[7]
  EC50: 0.456 µM
[3]
  solubility: 10 µM (≈ 4.39 µg/mL)
[4]
  CLhep predicted: 0.2 L/h/kg

## c1cn2cc(-c3cnc4nc[nH]c4n3)nc(Nc3ccc(N4CCN(C5COC5)CC4)cc3)c2n1
[5]
  EC50: 0.192 µM
[6]
  IC50: 0.0115 µM
[2]
  solubility: > 100 µM
[3]
  solubility: 3 µM (≈ 1.41 µg/mL)
[4]
  CLhep predicted: 0.17 L/h/kg

## O=S1(=O)CCN(c2ccc(Nc3nc(-c4ccc5cn[nH]c5c4)cn4ccnc34)cc2)CC1
[5]
  EC50: 0.033 µM
[6]
  IC50: 0.0195 µM
[1]
  logD: 1.9 to 2.7
[2]
  solubility: 26 µM (≈ 11.9 µg/mL)
[7]
  EC50: 1.19 µM
[3]
  solubility: 3 µM (≈ 1.38 µg/mL)
[4]
  CLhep predicted: 0.49 L/h/kg

## Nc1cncc(-c2cn3ccnc3c(Nc3ccc(N4CCN(C5COC5)CC4)cc3)n2)c1
[5]
  EC50: 0.162 µM
[6]
  IC50: 0.0286 µM
[2]
  solubility: 98 µM (≈ 43.4 µg/mL)
[7]
  EC50: 0.196 µM
[3]
  solubility: 87 µM (≈ 38.5 µg/mL)
[4]
  CLhep predicted: 0.26 L/h/kg

## c1cn2cc(-c3ccc4c(n3)NCCO4)nc(Nc3ccc(N4CCN(C5COC5)CC4)cc3)c2n1
[5]
  EC50: 0.107 µM
[6]
  IC50: 0.0441 µM
[2]
  solubility: 99 µM (≈ 48 µg/mL)
[7]
  EC50: 0.234 µM
[3]
  solubility: 2 µM (≈ 0.969 µg/mL)
[4]
  CLhep predicted: 0.26 L/h/kg

## c1cn2cc(-c3ccc4cn[nH]c4c3)nc(Nc3ccc(N4CC5(CCOCC5)C4)cc3)c2n1
[5]
  EC50: 0.082 µM
[6]
  IC50: 0.009 µM
[1]
  logD: 1.9 to 2.7
[2]
  solubility: 77 µM (≈ 34.8 µg/mL)
[7]
  EC50: 2.18 µM
[3]
  solubility: 3 µM (≈ 1.35 µg/mL)
[4]
  CLhep predicted: 0.24 L/h/kg

## C[C@@H]1CN(c2ccc(Nc3nc(-c4ccc5cn[nH]c5c4)cn4ccnc34)cc2)C[C@H](C)O1
[5]
  EC50: 0.045 µM
[6]
  IC50: 0.0049 µM
[1]
  logD: 1.9 to 2.7
[2]
  solubility: 86 µM (≈ 37.8 µg/mL)
[7]
  EC50: 0.885 µM
[3]
  solubility: < 1 µM
[4]
  CLhep predicted: 0.15 L/h/kg

## c1cn2cc(-c3ccc4cn[nH]c4c3)nc(Nc3ccc(N4CC5COCC5C4)cc3)c2n1 (stereo not drawn)
[5]
  EC50: 0.187 µM
[6]
  IC50: 0.0096 µM
[1]
  logD: 1.9 to 2.7
[2]
  solubility: 24 µM (≈ 10.5 µg/mL)
[7]
  EC50: 2.21 µM
[3]
  solubility: < 1 µM
[4]
  CLhep predicted: 0.27 L/h/kg

## c1cn2cc(-c3ccc4cn[nH]c4c3)nc(Nc3ccc(N4C[C@@H]5C[C@H]4CO5)cc3)c2n1
[5]
  EC50: 0.113 µM
[6]
  IC50: 0.005 µM
[1]
  logD: 1.9 to 2.7
[2]
  solubility: 79 µM (≈ 33.5 µg/mL)
[7]
  EC50: 1.5 µM
[3]
  solubility: < 1 µM
[4]
  CLhep predicted: 0.66 L/h/kg

## c1cn2cc(-c3ccc4cn[nH]c4c3)nc(Nc3ccc(N4C[C@H]5CC[C@@H](C4)O5)cc3)c2n1
[5]
  EC50: 0.162 µM
[6]
  IC50: 0.0053 µM
[1]
  logD: 1.9 to 2.7
[2]
  solubility: 24 µM (≈ 10.5 µg/mL)
[7]
  EC50: 2.33 µM
[3]
  solubility: < 1 µM
[4]
  CLhep predicted: 0.57 L/h/kg

## c1cn2cc(-c3ccc4cn[nH]c4c3)nc(Nc3ccc(N4[C@H]5COC[C@@H]4COC5)cc3)c2n1
[5]
  EC50: 0.033 µM
[6]
  IC50: 0.0137 µM
[1]
  logD: 1.9 to 2.7
[2]
  solubility: < 1 µM
[7]
  EC50: 0.133 µM
[3]
  solubility: < 1 µM
[4]
  CLhep predicted: 0.59 L/h/kg

## c1cn2cc(-c3cnc4cc[nH]c4n3)nc(Nc3ccc(N4CCN(C5COC5)CC4)cc3)c2n1
[5]
  EC50: 0.011 µM
[6]
  IC50: 0.0017 µM
[2]
  solubility: > 100 µM
[7]
  EC50: 0.048 µM
[3]
  solubility: 5 µM (≈ 2.34 µg/mL)
[4]
  CLhep predicted: 0.2 L/h/kg

## c1cn2cc(-c3cnc4cn[nH]c4c3)nc(Nc3ccc(N4CCN(C5COC5)CC4)cc3)c2n1
[5]
  EC50: 0.013 µM
[6]
  IC50: 0.0028 µM
[2]
  solubility: > 100 µM
[7]
  EC50: 0.047 µM
[3]
  solubility: 1 µM (≈ 0.468 µg/mL)
[4]
  CLhep predicted: 0.19 L/h/kg

## OC[C@H]1CN(c2ccc(Nc3nc(-c4ccc5cn[nH]c5c4)cn4ccnc34)cc2)CCO1
[5]
  EC50: 0.029 µM
[6]
  IC50: 0.0011 µM
[1]
  logD: 1.9 to 2.7
[2]
  solubility: 87 µM (≈ 38.4 µg/mL)
[7]
  EC50: 0.501 µM
[3]
  solubility: 1.2 µM (≈ 0.53 µg/mL)
[4]
  CLhep predicted: 0.26 L/h/kg

## c1cn2cc(-c3ccc4c(c3)NCCO4)nc(Nc3ccc(N4CCN(C5COC5)CC4)cc3)c2n1
[5]
  EC50: 0.046 µM
[6]
  IC50: 0.0215 µM
[2]
  solubility: > 100 µM
[7]
  EC50: 1.23 µM
[3]
  solubility: 29 µM (≈ 14 µg/mL)
[4]
  CLhep predicted: 0.91 L/h/kg

## Nc1cccc(-c2cn3ccnc3c(Nc3ccc(N4CCN(C5COC5)CC4)cc3)n2)c1
[5]
  EC50: 0.22 µM
[6]
  IC50: 0.0546 µM
[2]
  solubility: > 100 µM
[7]
  EC50: 0.939 µM
[3]
  solubility: 84 µM (≈ 37.1 µg/mL)
[4]
  CLhep predicted: 0.23 L/h/kg

## OC1CCN(c2ccc(Nc3nc(-c4ccc5cn[nH]c5c4)cn4ccnc34)cc2)CC1
[5]
  EC50: 0.033 µM
[6]
  IC50: 0.0012 µM
[1]
  logD: 1.9 to 2.7
[2]
  solubility: 84 µM (≈ 35.7 µg/mL)
[7]
  EC50: 0.591 µM
[3]
  solubility: 3 µM (≈ 1.28 µg/mL)
[4]
  CLhep predicted: 0.28 L/h/kg

## c1cn2cc(-c3ccc4cn[nH]c4c3)nc(Nc3ccc(N4CC5CC(C4)O5)cc3)c2n1
[5]
  EC50: 0.068 µM
[6]
  IC50: 0.0616 µM
[1]
  logD: 1.9 to 2.7
[2]
  solubility: 25 µM (≈ 10.6 µg/mL)
[7]
  EC50: 0.824 µM
[3]
  solubility: 2 µM (≈ 0.847 µg/mL)
[4]
  CLhep predicted: 0.32 L/h/kg

## Nc1cccc(-c2cn3ccnc3c(Nc3ccc(N4CCN(C5COC5)CC4)cc3)n2)n1
[5]
  EC50: 0.268 µM
[6]
  IC50: 0.0443 µM
[2]
  solubility: > 100 µM
[7]
  EC50: 0.308 µM
[3]
  solubility: 52 µM (≈ 23 µg/mL)
[4]
  CLhep predicted: 0.13 L/h/kg

## COCCN1CCN(c2ccc(Nc3nc(-c4ccc5cn[nH]c5c4)cn4ccnc34)cc2)CC1
[5]
  EC50: 0.023 µM
[6]
  IC50: 0.0009 µM
[1]
  logD: 1.9 to 2.7
[2]
  solubility: > 100 µM
[7]
  EC50: 0.267 µM
[3]
  solubility: < 1 µM
[4]
  CLhep predicted: 0.52 L/h/kg

## c1cn2cc(-c3ccc4cn[nH]c4c3)nc(Nc3ccc(N4CC5(COC5)C4)cc3)c2n1
[5]
  EC50: 0.063 µM
[6]
  IC50: 0.005 µM
[1]
  logD: 1.9 to 2.7
[2]
  solubility: 88 µM (≈ 37.3 µg/mL)
[7]
  EC50: 1.5 µM
[3]
  solubility: < 1 µM
[4]
  CLhep predicted: 0.66 L/h/kg
